Source: paper PMC10253812, “Novel 2-alkythio-4-chloro-N-[imino(heteroaryl)methyl]benzenesulfonamide Derivatives: Synthesis, Molecular Structure, Anticancer Activity and Metabolic Stability” (International Journal of Molecular Sciences, 2023)

Columns and labels:
[1] = test system: MCF-7 (breast cancer) cell line; test: MTT cell viability assay, MCF-7; type: cell-based, human; conditions: MTT assay, 72 h of incubation
Procedure: (§1) Compounds 8–24 were evaluated in vitro for their cytotoxic effect against three human cancer cell lines, i.e., HeLa (cervical cancer), HCT-116 (colon cancer) and MCF-7 (breast cancer), and the non-tumor cell line HaCaT using the MTT assay after 72 h of incubation. The results of tests are presented in Table 1 as IC50, indicating the concentration required for 50% inhibition of cell viability. Compounds 8–10 and 14–18 are not presented in the Table 1 because of their low potency (IC50 > 100 µM).
(§2) All chemicals, if not stated otherwise, were obtained from Sigma-Aldrich (St. Louis, MO, USA). The MCF-7, HeLa and HaCaT cell lines were purchased from Cell Lines Services (Eppelheim, Germany), and the HCT-116 cell line was purchased from ATCC (ATCC-No: CCL-247). The cells were cultured in Dulbecco’s modified Eagle’s medium (DMEM) supplemented with 10% fetal bovine serum, 2 mM glutamine, 100 units/mL of penicillin and 100 μg/mL of streptomycin. The cultures were maintained in a humidified atmosphere with 5% CO2 at 37 °C, in an incubator (Heraeus, HeraCell).
(§3) Cytotoxicity assay: Cell viability was determined using the MTT (3-(4,5-dimethylthiazol-2-yl)-2,5diphenyltetrazoliumbromide) assay. The cells were seeded in 96-well plates at a density of 5 × 10^3 cells/well and treated for 24, 48 and 72 h with the examined compounds in the concentration range 1–100 μM. Following treatment, MTT (0.5 mg/mL) was added to the medium, and the cells were further incubated for 2 h at 37 °C. the cells were lysed with DMSO, and the absorbance of the formazan solution was measured at 550 nm with a plate reader (Victor, 1420 multilabel counter). The experiment was performed in triplicate. The values are expressed as the mean ± SD of at least three independent experiments.

[2] = test system: HCT-116 (colon cancer) cell line; test: MTT cell viability assay, HCT-116; type: cell-based; conditions: Homo sapiens, 72 h of incubation
Procedure: as §1, §2, §3

[3] = test system: HeLa (cervical cancer) cell line; test: MTT cell viability assay, HeLa; type: cell-based, human; conditions: Homo sapiens, HeLa; MTT assay, 72 h of incubation; read-out: IC50 HeLa
Procedure: as §1
The cytotoxic activity of 11–13 was determined in a time-dependent manner with the MTT assay (Figure 3).
HeLa cells were treated with 11, 12 and 13 in the concentration range of 0–20 µM. […] After 48 h, the IC50 values for compounds 11, 12 and 13 were 6, 7 and 6 µM, respectively.
as §2, §3

[4] = test system: HeLa, HCT-116 and MCF-7 cell lines; test: MTT screening, statements pooled over the three cancer cell lines; type: cell-based; conditions: Homo sapiens, 72 h, HCT-116, MCF-7, read-out: IC50 (low potency, not shown in Table 1)
Procedure: as §1, §2, §3

[5] = test system: HaCaT (immortalized human keratinocytes); test: MTT cell viability assay, non-tumor HaCaT; type: cell-based; conditions: 72 h of incubation, non-tumor cell line
Procedure: as §1
We also performed an assay on the non-tumor cell line HaCaT (immortalized human keratinocytes) to assess if the effect of 11–13 was selective toward HeLa cells or resulted from a more general toxic activity.
as §2, §3

SMILES	IC50 ([1]; Homo sapiens, MCF7) [µM]	IC50 [2] [µM]	IC50 [3] [µM]	IC50 [4] [µM]	other results
Cc1cc(S(=O)(=O)NC(=N)n2c(=S)[nH]c3ccccc32)c(SCc2cccc3ccccc23)cc1Cl [Compound 24, 4-Chloro-N-[imino-(2-thioxo-2,3-dihydro-1H-benzo[d]imidazol-1-yl)methyl]-5-methyl-2-(naphthalen-1-ylmethylthio)benzenesulfonamide]	56 ± 2	21 ± 0.6	33 ± 1		
Cc1cc(S(=O)(=O)NC(=N)n2ccn(C)c2=S)c(SCc2cccc(C(F)(F)F)c2)cc1Cl [Compound 9, 4-Chloro-N-[imino(3-methyl-2-thioxo-2,3-dihydro-1H-imidazol-1-yl)methyl]-5-methyl-2-(3-trifluoromethylbenzylthio)benzenesulfonamide]				> 100	
Cc1cc(S(=O)(=O)NC(=N)n2ncn(C)c2=S)c(SCc2ccccc2)cc1Cl [Compound 15, 2-Benzylthio-4-chloro-5-methyl-N-[imino(4-methyl-5-thioxo-4,5-dihydro-1H-1,2,4-triazol-1-yl)methyl]benzenesulfonamide]				> 100	
Cc1cc(S(=O)(=O)NC(=N)n2ccn(C)c2=S)c(SCc2ccccc2)cc1Cl [Compound 8, 2-Benzylthio-4-chloro-N-[imino(3-methyl-2-thioxo-2,3-dihydro-1H-imidazol-1-yl)methyl]-5-methylbenzenesulfonamide]				> 100	
Cc1cc(S(=O)(=O)NC(=N)n2c(=S)[nH]c3ccccc32)c(SCc2cccc(C(F)(F)F)c2)cc1Cl [Compound 20, 4-Chloro-N-[imino-(2-thioxo-2,3-dihydro-1H-benzo[d]imidazol-1-yl)methyl]-5-methyl-2-(3-trifluoromethylbenzylthio)benzenesulfonamide]	49 ± 1	17 ± 0.5	43 ± 1		
Cc1cc(S(=O)(=O)NC(=N)n2ccn(C)c2=S)c(SCc2ccc(C(F)(F)F)cc2)cc1Cl [Compound 10, 4-Chloro-N-[imino(3-methyl-2-thioxo-2,3-dihydro-1H-imidazol-1-yl)methyl]-5-methyl-2-(4-trifluoromethylbenzylthio)benzenesulfonamide]				> 100	
N.N.[Cl][Pt][Cl] [Cisplatin, reference compound]					IC50 [1]: 3 ± 0.1 µM; IC50 [5]: 7.7 ± 0.2 µM
Cc1cc(S(=O)(=O)NC(=N)n2c(=S)[nH]c3ccccc32)c(SCc2ccc(Cl)cc2)cc1Cl [Compound 22, 4-Chloro-2-(4-chlorobenzylthio)-N-[imino-(2-thioxo-2,3-dihydro-1H-benzo[d]imidazol-1-yl)methyl]-5-methylbenzenesulfonamide]	73 ± 2	27 ± 0.5	49 ± 2		

Now from value to compound, other results behind:

IC50 ([1]; Homo sapiens, MCF7) [µM]	IC50 [2] [µM]	IC50 [3] [µM]	IC50 [4] [µM]	SMILES	other results
82 ± 4	36 ± 1	60 ± 3		Cc1cc(S(=O)(=O)NC(=N)n2c(=S)[nH]c3ccccc32)c(SCc2ccccc2)cc1Cl [Compound 19, 2-Benzylthio-4-chloro-5-methyl-N-[imino-(2-thioxo-2,3-dihydro-1H-benzo[d]imidazol-1-yl)methyl]benzenesulfonamide]	
62 ± 3	23 ± 0.2	52 ± 1		Cc1cc(S(=O)(=O)NC(=N)n2c(=S)[nH]c3ccccc32)c(SCc2ccc(C(F)(F)F)cc2)cc1Cl [Compound 21, 4-Chloro-N-[imino-(2-thioxo-2,3-dihydro-1H-benzo[d]imidazol-1-yl)methyl]-5-methyl-2-(4-trifluoromethylbenzylthio)benzenesulfonamide]	
			> 100	Cc1cc(S(=O)(=O)NC(=N)n2ncn(C)c2=S)c(SCc2ccc(C(F)(F)F)cc2)cc1Cl [Compound 17, 4-Chloro-N-[imino(4-methyl-5-thioxo-4,5-dihydro-1H-1,2,4-triazol-1-yl)methyl]-5-methyl-2-(4-trifluoromethylbenzylthio)benzenesulfonamide]	
50 ± 2	34 ± 0.3	57 ± 1		Cc1cc(S(=O)(=O)NC(=N)n2c(=S)[nH]c3ccccc32)c(SCc2cc3c(cc2Cl)OCO3)cc1Cl [Compound 23, 4-Chloro-2-(6-chlorobenzo [1,3]dioxol-5-ylmethylthio)-N-[imino-(2-thioxo-2,3-dihydro-1H-benzo[d]imidazol-1-yl)methyl]-5-methylbenzenesulfonamide]	
			> 100	Cc1cc(S(=O)(=O)NC(=N)n2ncn(C)c2=S)c(SCc2ccc(Cl)cc2)cc1Cl [Compound 18, 4-Chloro-2-(4-chlorobenzylthio)-N-[imino(4-methyl-5-thioxo-4,5-dihydro-1H-1,2,4-triazol-1-yl)methyl]5-methylbenzenesulfonamide]	
			> 100	CCOC(=O)CSc1cc(Cl)c(C)cc1S(=O)(=O)NC(=N)n1ccn(C)c1=S [Compound 14, 4-Chloro-2-ethoxycarbonylmethylthio-N-[imino(3-methyl-2-thioxo-2,3-dihydro-1H-imidazol-1-yl)methyl]-5-methylbenzenesulfonamide]	
